From patent US20140275078A1, “COMPOSITIONS AND METHODS FOR TREATING CANCER USING PI3KB INHIBITOR AND MAPK PATHWAY INHIBITOR, INCLUDING MEK AND RAF INHIBITORS” (SANOFI, priority 2011, published 2014)
Values joined by “and” are separate entries in the source; they are usually repeats but may differ in a detail not shown here. Identical values can stand only once. Like-named read-outs stand apart in the source and are kept apart here.

How the values were obtained:
[1] = system: human melanoma cell line UACC-62; experiment: Cell proliferation (CelltiterGlo, ray design) in UACC-62; assay type: cell-based; settings: single agent, 96 hours, 4-parameter logistic model
Procedure: The human melanoma UACC-62 cell line was purchased at NCI (Batch 0503000). The UACC-62 cells were cultured in RPMI1640 medium supplemented with 10% FBS and 2 mM L-Glutamine.
They were diluted in cascade, in DMSO and then diluted 50-fold in culture medium containing 10% serum before being added onto cells with a 20-fold dilution factor. The final concentrations tested were defined by Ray design described in Table 1. The DMSO concentration was 0.1% in controls and in all treated wells.
(§1) UACC-62 cells were plated at 2500 cells/well in 96-well plates in appropriate culture medium and incubated 6 hours at 37° C., 5% CO2. […] Cell growth was evaluated by measuring intracellular ATP using CelltiterGlo® reagent (Promega) according to the manufacturer's protocol. Briefly, Cell Titer Glo was added to each plate, incubated for 1 hour then luminescent signal was read on the MicroBeta Luminescent plate reader. All plates were run in duplicate. All assays were run at least in duplicate.
(§2) Inhibition of cell growth was estimated after treatment with compound or combination of compounds for four days and comparing the signal to cells treated with vehicle (DMSO).
Growth inhibition percentage (GI %) was calculated according to the following equation: GI %=100*(1−((X−BG)/(TC−BG)) […]

[2] = system: human melanoma tumors UACC-62; experiment: Antitumor activity against subcutaneous UACC-62 tumors in SCID female mice; settings: for tolerability (body weight loss): single agents or combination
[3] = Chemical stability of dosing stock solution; settings: oral dosing formulation of each compound; in the dark at RT
[4] = system: human melanoma cell line WM-266-4; experiment: Cell proliferation (CelltiterGlo, ray design) in WM-266-4; assay type: cell-based; settings: single agent, 96 hours, 4-parameter logistic model
Procedure: as §1, §2
Growth inhibition percentage (GI %) was calculated according to the following equation: GI %=100*(1−((X−BG)/(TC−BG))
A global non linear mixed model using NLMIXED procedure of SAS V9.2 was applied to fit simultaneously the concentration-responses curves for each ray. The combination index
of each ray i and its 95% confidence interval was then estimated using the following equation: […]
where IC40A and IC40B are the concentrations of compound A and compound B necessary to obtain 40% of inhibition for each compound alone and CA and CB are the concentrations of compound A and compound B in the mixture necessary to obtain 40% of inhibition.
The human melanoma WM-266-4 cell line was purchased at ATCC (Ref number CRL-1676 Batch 3272826). The WM-266-4 cells were cultured in RPMI1640 medium supplemented with 10% FBS and 2 mM L-Glutamine.
Materials and Methods are the same described in example 1.
The human melanoma WM-266-4 cell line was purchased at ATCC (Ref number CRL-1676 Batch 3272826). The WM-266.4 cells were cultured in RPMI1640 medium supplemented with 10% FBS and 2 mM L-Glutamine.

[5] = system: human primary colon tumors CR-IGR-014P; settings: Ex. 8, Cpd (I) 150 mg/kg bid
[6] = system: human melanoma tumors WM-266.4; settings: for tolerability (body weight loss): Cpd (2a) 25 and 10 mg/kg qd, Cpd (2b) 100 and 50 mg/kg qd, single agents or combination
[7] = Ex. 5, PO d11-22, Cpd (I) 150 mg/kg bid, Cpd (2a) 10 mg/kg qd, alone or combined
[8] = PO d20-36, Cpd (2a) 10 mg/kg qd, alone or combined
[9] = Ex. 7, PO d21-31, Cpd (I) 150 mg/kg bid, Cpd (2a) 10 mg/kg qd, alone or combined

## Cn1cnc2c(F)c(Nc3ccc(Br)cc3Cl)c(C(=O)NOCCO)cc21 [Compound (2a), 1H-Benzimidazole-6-carboxamide, 5-[(4-bromo-2-chlorophenyl)amino]-4-fluoro-N-(2-hydroxyethoxy)-1-methyl]
[1]; example 1
  Absolute IC40: 27 nM
[2]; Ex. 5, Cpd (I) 150 mg/kg bid, Cpd (2a) 25 and 10 mg/kg qd
  tolerability (body weight loss): well tolerated inducing minimal bwl
[2]; [7]
  Average body weight change in % per mouse at nadir: −4.3%
  Drug death (Day of death): 0/7
  day of nadir: 21 days
  ΔT/ΔC % (day 22): 35%
[3]
  stock solution chemically stable: 7 days
[4]; example 3
  Absolute IC40: 33 nM
[5]; Cpd (2a) 25 and 10 mg/kg qd, single agents or combination
  tolerability (body weight loss): well tolerated inducing minimal bwl
[5]; [8]
  Average body weight change in % per mouse at nadir: −4.2%
  Drug death (Day of death): 0/7
  day of nadir: 27 days
  ΔT/ΔC % (day 36): 84%
[6]; Ex. 7, Cpd (I) 150 mg/kg bid
  tolerability (body weight loss): induced a higher bwl as compared to the control
[6]; [9]
  Average body weight change in % per mouse at nadir: −10.5%
  Drug death (Day of death): 0/7
  day of nadir: 31 days
  ΔT/ΔC % (day 31): 36%

## CCCS(=O)(=O)Nc1ccc(F)c(C(=O)c2c[nH]c3ncc(-c4ccc(Cl)cc4)cc23)c1F [Compound (2b), 1-Propanesulfonamide, N-[3-[[5-(4-chlorophenyl)-1H-pyrrolo[2,3-b]pyridin-3-yl]carbonyl]-2,4-difluorophenyl]]
[1]; example 2
  Absolute IC40: 18 nM and 17.7 nM
[2]; Ex. 6, Cpd (I) 151.5 mg/kg bid, Cpd (2b) 50 mg/kg qd, alone or combined, Day 11
  Tumor volume changes from baseline: Median (nMad): 62 (16.3)
[2]; Ex. 6, Cpd (I) 151.5 mg/kg bid, Cpd (2b) 50 mg/kg qd, alone or combined, Day 13
  Tumor volume changes from baseline: Median (nMad): 157 (132)
[2]; Ex. 6, Cpd (I) 151.5 mg/kg bid, Cpd (2b) 50 mg/kg qd, alone or combined, Day 15
  Tumor volume changes from baseline: Median (nMad): 240 (132)^
[2]; Ex. 6, Cpd (I) 151.5 mg/kg bid, Cpd (2b) 50 mg/kg qd, alone or combined, Global
  Tumor volume changes from baseline: Median (nMad): 154 (136.4)
[2]; Ex. 6, Cpd (I) 151.5 mg/kg bid, Cpd (2b) 100 mg/kg qd, alone or combined, Day 11
  Tumor volume changes from baseline: Median (nMad): 54 (60.8)
[2]; Ex. 6, Cpd (I) 151.5 mg/kg bid, Cpd (2b) 100 mg/kg qd, alone or combined, Day 13
  Tumor volume changes from baseline: Median (nMad): 126 (74.1)
[2]; Ex. 6, Cpd (I) 151.5 mg/kg bid, Cpd (2b) 100 mg/kg qd, alone or combined, Day 15
  Tumor volume changes from baseline: Median (nMad): 152 (161.6)
[2]; Ex. 6, Cpd (I) 151.5 mg/kg bid, Cpd (2b) 100 mg/kg qd, alone or combined, Global
  Tumor volume changes from baseline: Median (nMad): 98 (89)^
[2]; Ex. 6, Cpd (I) 151.5 mg/kg bid, Cpd (2b) 100 and 50 mg/kg qd
  tolerability (body weight loss): well tolerated inducing minimal bwl
[2]; Ex. 6, PO d8-15, Cpd (I) 151.5 mg/kg bid, Cpd (2b) 100 mg/kg qd, alone or combined
  ΔT/ΔC % (day 15): 20%
[2]; mouse, in vivo
  Average body weight change in % per mouse at nadir: −3.7 (13) % and −1.7 (15) %
[3]
  stock solution chemically stable: 7 days
[4]; example 4
  Absolute IC40: 35 nM
[6]; Ex. 7, Cpd (I) 150 mg/kg bid
  tolerability (body weight loss): well tolerated
[6]; Ex. 7, Cpd (I) 150 mg/kg bid, Cpd (2b) 50 mg/kg qd, alone or combined, Day 24
  Tumor volume changes from baseline: Median (nMad): 116 (11.9)
[6]; Ex. 7, Cpd (I) 150 mg/kg bid, Cpd (2b) 50 mg/kg qd, alone or combined, Day 27
  Tumor volume changes from baseline: Median (nMad): 254 (118.6)
[6]; Ex. 7, Cpd (I) 150 mg/kg bid, Cpd (2b) 50 mg/kg qd, alone or combined, Day 29
  Tumor volume changes from baseline: Median (nMad): 322 (94.9)
[6]; Ex. 7, Cpd (I) 150 mg/kg bid, Cpd (2b) 50 mg/kg qd, alone or combined, Day 31
  Tumor volume changes from baseline: Median (nMad): 442 (60.8)
[6]; Ex. 7, Cpd (I) 150 mg/kg bid, Cpd (2b) 50 mg/kg qd, alone or combined, Global
  Tumor volume changes from baseline: Median (nMad): 274 (228.3)
[6]; Ex. 7, Cpd (I) 150 mg/kg bid, Cpd (2b) 100 mg/kg qd, alone or combined, Day 24
  Tumor volume changes from baseline: Median (nMad): 36 (26.7)
[6]; Ex. 7, Cpd (I) 150 mg/kg bid, Cpd (2b) 100 mg/kg qd, alone or combined, Day 27
  Tumor volume changes from baseline: Median (nMad): 171 (40)^
[6]; Ex. 7, Cpd (I) 150 mg/kg bid, Cpd (2b) 100 mg/kg qd, alone or combined, Day 29
  Tumor volume changes from baseline: Median (nMad): 226 (86)^
[6]; Ex. 7, Cpd (I) 150 mg/kg bid, Cpd (2b) 100 mg/kg qd, alone or combined, Day 31
  Tumor volume changes from baseline: Median (nMad): 441 (96.4)
[6]; Ex. 7, Cpd (I) 150 mg/kg bid, Cpd (2b) 100 mg/kg qd, alone or combined, Global
  Tumor volume changes from baseline: Median (nMad): 193.5 (200.2)^
[6]; Ex. 7, PO d21-31, Cpd (I) 150 mg/kg bid, Cpd (2b) 50 mg/kg qd, alone or combined
  ΔT/ΔC % (day 31): > 40%
[6]; Ex. 7, PO d21-31, Cpd (I) 150 mg/kg bid, Cpd (2b) 50 mg/kg qd, alone or combined, listed as Cpd. 2b
  ΔT/ΔC % (day 31): 59%
[6]; Ex. 7, PO d21-31, Cpd (I) 150 mg/kg bid, Cpd (2b) 100 mg/kg qd, alone or combined
  ΔT/ΔC % (day 31): > 40%
[6]; Ex. 7, PO d21-31, Cpd (I) 150 mg/kg bid, Cpd (2b) 100 mg/kg qd, alone or combined, listed as Cpd. 2b
  ΔT/ΔC % (day 31): 59%
[6]; mouse, in vivo
  Average body weight change in % per mouse at nadir: −6.6 (31) %
